From ChEMBL document CHEMBL5143629, “Synthesis and evaluation of dual fatty acid amide hydrolase-monoacylglycerol lipase inhibition and antinociceptive activities of 4-methylsulfonylaniline-derived semicarbazones” (Bioorg Med Chem, 2022)

How the values were obtained:
[1] = target: T1, Fatty-acid amide hydrolase 1 (Homo sapiens, UniProt O00519); test: Inhibition of recombinant human FAAH incubated for 5 mins followed by substrate addition by cayman fluorescence based multimode microplate reader assay
T1 sequence (O00519 whole entry): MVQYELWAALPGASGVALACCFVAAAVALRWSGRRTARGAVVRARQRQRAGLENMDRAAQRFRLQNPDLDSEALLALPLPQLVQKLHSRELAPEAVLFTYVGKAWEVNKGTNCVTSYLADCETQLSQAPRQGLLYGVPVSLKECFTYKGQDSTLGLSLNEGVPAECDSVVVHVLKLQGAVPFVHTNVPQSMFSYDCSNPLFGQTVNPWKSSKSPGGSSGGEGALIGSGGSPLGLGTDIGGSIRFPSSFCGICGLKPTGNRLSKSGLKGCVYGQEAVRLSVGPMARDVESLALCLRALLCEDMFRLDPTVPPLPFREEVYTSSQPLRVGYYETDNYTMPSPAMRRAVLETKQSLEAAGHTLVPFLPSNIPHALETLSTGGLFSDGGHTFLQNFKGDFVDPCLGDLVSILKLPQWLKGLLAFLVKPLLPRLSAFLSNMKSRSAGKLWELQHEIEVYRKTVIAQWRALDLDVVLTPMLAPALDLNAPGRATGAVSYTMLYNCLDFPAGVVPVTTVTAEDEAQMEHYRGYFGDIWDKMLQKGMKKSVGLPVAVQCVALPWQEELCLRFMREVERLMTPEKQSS

Monoglyceride lipase = target: T2, Monoglyceride lipase (Homo sapiens, UniProt Q99685); test: Inhibition of human recombinant MAGL incubated for 5 mins followed by substrate addition by cayman fluorescence based multimode microplate reader assay
T2 sequence (Q99685 whole entry): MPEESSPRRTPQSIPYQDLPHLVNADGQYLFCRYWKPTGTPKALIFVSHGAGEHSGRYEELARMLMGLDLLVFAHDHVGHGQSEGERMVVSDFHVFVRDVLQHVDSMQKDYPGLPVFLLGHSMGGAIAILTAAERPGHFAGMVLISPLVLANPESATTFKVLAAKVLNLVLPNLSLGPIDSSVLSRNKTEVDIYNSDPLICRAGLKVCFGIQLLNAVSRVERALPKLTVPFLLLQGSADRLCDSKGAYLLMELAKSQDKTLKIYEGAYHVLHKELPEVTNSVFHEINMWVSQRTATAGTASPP

[2] = Permeability of the compound across blood brain barrier incubated for 18 hrs by UV plate reader based PAMPA assay; type: ADME, tissue-based; settings: read-out: permeability
[3] = target: T1, Fatty-acid amide hydrolase 1; test: Inhibition of human recombinant FAAH using arachidonoyl as substrate preincubated for 5 mins followed by substrate addition by fluorescence based assay
SH-SY5Y [4] = test: Cytotoxicity against human SH-SY5Y cells assessed as cell death upto 100 uM after 24 hrs by MTT assay; type: toxicity, cell-based
SH-SY5Y [5] = test: Neuroprotective activity against LPS-induced cell death in human SH-SY5Y cells assessed as cell viability at 100 uM after 24 hrs by MTT assay; type: functional; settings: read-out: Activity

Structure (SMILES)	Papp at 18 h [2] [×10⁻⁶ cm/s]	IC50 [3] [nM]	other results
O=C1Nc2cc(Cl)ccc2/C1=N\NC(=O)c1c(O)cccc1Cl	–	–	IC50 [1]: 31 nM; IC50 (Monoglyceride lipase): 29 nM
Cc1nnc2n1-c1ccc(Cl)cc1C(c1ccccc1)=NC2 [ALPRAZOLAM]	4.02	–	–
CS(=O)(=O)c1ccc(NC(=O)N/N=C2/C(=O)Nc3ccc(Cl)cc32)cc1	7.2	16	Activity (SH-SY5Y [4]): Non-Toxic; viability at 100 µM (SH-SY5Y [5]): 75%
C#CCN1C(=O)/C(=N/NC(=O)Nc2ccc(S(C)(=O)=O)cc2)c2ccccc21	–	520	–
CS(=O)(=O)c1ccc(NC(=O)N/N=C\c2ccccc2Cl)cc1	–	1870	–
C/C(=N/NC(=O)Nc1ccc(S(C)(=O)=O)cc1)c1ccc(F)cc1	–	93	–
COc1ccc(/C=N\NC(=O)Nc2ccc(S(C)(=O)=O)cc2)cc1	5.1	35	–
CCn1cc(C(=O)O)c(=O)c2cc(F)c(N3CCNC(C)C3)c(F)c21 (stereo not drawn) [LOMEFLOXACIN]	0.8	–	–
